We go through two sequences from patent publication US7786257B2, “Signal-1/signal-2 bifunctional peptide inhibitors” (priority 2000, dated 2010).

Test [1] concerns live APC (spleenocytes) from NOD (I-A^g7), BALB/c, A.SW, A.BY mice. The experiment in a line: Flow cytometry of biotinylated peptide binding to live APC (spleenocytes) of inbred mouse strains. The following applies: biotinylated peptide, live spleenocytes, flow cytometry. Here is the method:
Specifically, it was verified that the peptide binds to MHC molecules on live APC. Briefly, spleen cell density-gradient fractions (from mice), or PBL, or APC lines (from humans) were incubated in round bottom 96-well plates with increasing concentrations of individual biotinylated peptides at 37° C., 5% CO2 for 16 hours. Following binding of the BPI to the APC, Avidin-FITC was incubated with the cells on ice for 30 minutes, followed by biotinylated anti-Avidin for 1 hour, then again with Avidin-FITC. For BPI titrations, increasing concentrations (0.1-100 μM) of the biotinylated derivatives in sterile 0.5% BSA-PBS were incubated with the APC for 16 hours as above. […] Three-color analyses used Cy-Chrome or PE-conjugated antibodies to known surface markers of APC that were commercially available. Avidin-FITC and biotinylated anti-Avidin detection of the bound peptide was as previously described in Murray et al., 24 Eur. J. Immunol. 2337-2344 (1994); Murray; 19 Immunology Today 157-163; and Schountz et al., 157 The Journal of Immunology 3893-3901 (1996). Slight modifications of this method were used to test peptide inhibition (i.e., peptide affinity) and co-capping to the MHC and ICAM molecules directly on the live APC surface. […] Unlabeled peptide was used in a competition assay to derive the relative affinity of the BPI for the APC and the ability of the BPI to crosslink the MHC and ICAM molecules on the APC was examined by cocapping ICAM with an anti-MHC mAb. Here, cells were incubated with the BPI. Next, an anti-MHC mAb was added. After 30 minutes at 37° C., the cells were transferred to ice and stained with PE-labeled anti-ICAM (FIG. 7).
To obtain biotinylated BPI, the synthesized EGAD BPI was biotinylated with NHS-Biotin as described in Murray et al., 24 Eur. J. Immunol. 2337-2344 (1994). Spleen cell density-gradient fractions from normal (unimmunized) NOD, BALB/c and other MHC congenic strains were incubated in round bottom 96-well plates with increasing concentrations of individual biotinylated peptides at 37° C., 5% CO2 for 16 hours. Following binding of the BPI to the APC, Avidin-FITC was incubated with the cells on ice for 30 minutes, followed bybiotinylated anti-Avidin for 1 hour, then again with Avidin-FITC. For BPI titrations, increasing concentrations (0.1-100 μM) of the biotinylated derivatives in sterile 0.5% BSA-PBS were incubated with the APC for 16 hours as above. Three-color analyses used Cy-Chrome or PE-conjugated anti-B220 (mAb RA3-6B2 (CD45R B-cell marker), anti-MHC class II (KH74 or 10-3.62 mAb), or anti-ICAM-1 (3E2 mAb); (all purchased from PharMingen, San Diego, Calif.). Bound peptide was detected with avidin-FITC/biotinylated anti-avidin/avidin-FITC on live cells gated by forward/side scatter analysis. Controls contained all detecting reagents in absence of the biotinylated peptide; 20,000 events were analyzed for each histogram with a FACScan (Becton-Dickinson) flow cytometer.
To verify antigenic peptide binding to live APC, initial EGAD-BPI were screened for selective binding to NOD (I-A^g7) APC and assayed for simultaneous binding using monoclonal antibodies against either MHC-II or ICAM-1 by flow cytometry methods using live APC (Murray et al., 24 Eur. J. Immunol. 2337-2344 (1994); Murray; 19 Immunology Today 157-163; and Schountz et al., 157 The Journal of Immunology 3893-3901 (1996)). In this assay, increasing concentrations of the biotinylated-BPI, -CD11a(237-247) or -GAD65(208-217) peptide were incubated overnight with spleenocytes from each inbred strain. Bound peptide was detected with amplification of avidin-FITC fluorescence by the use of a biotinylated anti-avidin reagent, followed by a second round of avidin-FITC binding. Biotinylated peptide was incubated with 10^6 viable cells at a peptide concentrations of 50 μM. Bound peptide was detected with avidin-FITC/biotinylated anti-avidin-FITC. […]
In general terms: In flow cytometry, cells or beads pass a laser one at a time.

In test [2] the test system is NOD mice. Description: Lymphocytic infiltration of pancreatic islets (insulitis) in NOD mice, histological scoring. The settings on record: NOD males; for intact / normal islets without infiltration (grade-0 islets), percentage of islets examined: GAD65 peptide in CFA, two i.v. injections of 40 nanomoles. Type of test: in vivo, mouse. The text has this: To evaluate the disease process by immunohistology (see, e.g., FIG. 12A-D), spleen, pancreas, or other target organs, e.g., the CNS for the MDP peptide BPI, or lung for the RSV peptide BPI, were removed from euthanized mice of each group and prepared for histology by fixing in neutral buffered formalin and embedding in paraffin, or snap frozen in O.C.T. medium. For scoring inflammation, minimums of five sections from each mouse were used to assess the blocking affect of a given BPI. For characterization of standard T-cell markers on cellular infiltrates, biotinylated mAb to various cell surface antigens will be incubated individually with the Cryostat sections (2 hours), followed by avidin-alkaline phosphatase (Vector laboratories). Alternatively, cell subsets will be phenotyped by standard flow cytometry methods as described in Murray et al., 24 Eur. J. Immunol. 2337-2344 (1994); Murray; 19 Immunology Today 157-163; and Schountz et al., 157 The Journal of Immunology 3893-3901 (1996). Finally, the students t-test or ANOVA will be used to estimate the statistical significance of differences observed between groups and individual mice.
These studies sought to confirm that the BPI containing the immunodominant GAD65 TCR epitope (EGAD-BPI) was biologically active in vivo and inhibited the development of pancreatic inflammation. Groups of three normal glycemic NOD males (8 weeks old) were immunized with the GAD65 (208-217) peptide in CFA as described in Example 4. The control group received PBS, and separate experimental groups received either the EGAD-BPI, the GAD peptide alone (i.e., the T-cell receptor epitope), or the CD11a peptide alone(i.e., the second signal receptor moiety) by two intravenous injections as described in Example 4. On day 10, the pancreata were removed to 10% PBS-buffered formalin, embedded in paraffin, and five-micron serial sections were examined histologically for mononuclear cell infiltration as previously described by Yoon, et al., Control of Autoimmune Diabetes in NOD Mice by GAD Expression or Suppression in β Cells, 284 Science 1183-1187 (1999), the entirety of which is hereby incorporated by reference.

As to “EIAPVFVLLE (listed as Homo sapiens) [GAD65 peptide, reference compound]”, the “preferential binding to NOD APC compared with other strains (BALB/c, A.SW, A.BY)” value was “did not bind preferentially to NOD APC” in test [1] and “did not display this increased binding” in test [1] (listed as GAD 65 moiety). Besides, the “intact / normal islets without infiltration (grade-0 islets), percentage of islets examined” value in test [2] (day 10) came out at 62%. Further, the “mononuclear cell infiltration of islets (insulitis), in words” value in test [2] (day 10, histology) was “showed the most insulitis”. In addition, in test [2] (two i.v. injections, day 10), the “islets scored grade 2 or above” value was 37.5%.

With “ITDGEATDSG (listed as Homo sapiens) [CD11a peptide, Signal-2 moiety (second signal receptor moiety) of EGAD-BPI, tested alone as control]”, the entries for the “preferential binding to NOD APC compared with other strains (BALB/c, A.SW, A.BY)” value in test [1], in test [1] (listed as LFA-1 (CD11a 237-247) peptide) and in test [1] (listed as LFA-1 moiety) were “did not bind preferentially to NOD APC”, “bound similarly to all strain spleenocytes” and “did not display this increased binding”, respectively. The “intact / normal islets without infiltration (grade-0 islets), percentage of islets examined” value in test [2] (day 10) was determined as 66.7%.
